Patent US20150031641A1, “METHODS AND COMPOSITIONS FOR THE DIAGNOSIS, PROGNOSIS AND TREATMENT OF ACUTE MYELOID LEUKEMIA” (MEMORIAL SLOAN-KETTERING CANCER CENTER, priority 2012, published 2015)

Tested on: patients with AML
Test: ECOG E1900 trial: overall survival after induction with high-dose vs standard-dose daunorubicin plus cytarabine, by genotype
Format: in vivo, human
Details: for outcome with dose-intensified induction therapy: univariate analysis
Experimental: The present disclosure is based on mutational analysis of 18 genes in 398 patients with AML younger than 60 years of age randomized to receive induction therapy including high-dose or standard dose daunorubicin. Prognostic findings were further validated in an independent set of 104 patients.
Mutational analysis was performed on diagnostic patient samples from the ECOG E1900 trial in the test (n=398) and validation (n=104) cohorts. The test cohort comprised of all E1900 patients for whom viably frozen cells were available for DNA extraction and mutational profiling. The validation cohort comprised of a second set of patients for whom samples were banked in Trizol, which was used to extract DNA for mutational studies.
Clinical characteristics of the patients studied compared to the complete E1900 trial cohort are in Table 1. The median follow-up time of patients included for analysis was 47.4 months from induction randomization. Cytogenetic analysis, fluorescent in situ hybridization, and RT-PCR for recurrent cytogenetic lesions was performed as described initially by Slovak et al. and utilized previously with central review by the ECOG Cytogenetics Committee (see ref. 16 and 17).
Survival time was measured from date of randomization to date of death for those who died and date of last follow-up for those who were alive at the time of analysis. Survival probabilities were estimated using the Kaplan-Meier method and compared across mutant and wild-type patients using the log-rank test. Multivariate analyses were conducted using the Cox model with forward selection. Proportional hazards assumption was checked by testing for a non-zero slope in a regression of the scaled Schoenfeld residuals on functions of time (Table 3).
When necessary, such as the analyses performed in various subsets, results of the univariate analyses were used to select the variables to be included in the forward variable search. Final multivariate models informed the development of novel risk classification rules. When indicated, p-values were adjusted to control the family wise error rate (FWER) using the complete null distribution approximated by resampling obtained through PROC MULTTEST in SAS or the multtest library in R^19. These adjustements were performed to adjust for the probability of making one or more false discoveries given that multiple pairwise tests were being performed. The only exception is adjustment for tests regarding effect of mutations on response to induction dose where a step-down Holm procedure was used to correct for multiple testing. All analyses were performed using SAS 9.2 (www.sas.com) and R 2.12 (www.r-project.org).
Mutual exclusivitity of pairs of mutations were evaluated by fourfold contingency tables and Fisher's exact test. The association between mutations and cytogenetic risk classification was tested using the chi-square test. Hierarchical clustering was performed using the Lance-Williams dissimilarity formula and complete linkage. Survival time was measured from date of randomization to date of death for those who died and date of last follow-up for those who were alive at the time of analysis. Survival probabilities were estimated using the Kaplan-Meier method and compared across mutant and wildtype patients using the log-rank test. Multivariate analyses were conducted using the Cox model. Proportional hazards assumption was checked by testing for a non-zero slope in a regression of the scaled Schoenfeld residuals on functions of time. […]

COc1cccc2c1C(=O)c1c(O)c3c(c(O)c1C2=O)C[C@@](O)(C(C)=O)C[C@@H]3O[C@H]1C[C@H](N)[C@H](O)[C@H](C)O1 [daunorubicin]
outcome with dose-intensified induction therapy (AML patients with MLL translocations): improved outcome
outcome with dose-intensified induction therapy (AML patients with NPM1 mutations): improved outcome
survival with high-dose daunorubicin according to treatment arm (DNMT3A mutant patients): associated with improved survival
impact of DNMT3A mutational status on the outcome with dose-intensive chemotherapy (patients receiving high-dose or standard-dose daunorubicin, FIG. 4B): significant impact
overall survival, high-dose relative to standard dose daunorubicin (patients with DNMT3A or NPM1 mutations or MLL translocations, cytarabine plus 90 vs 45 mg/m^2 daunorubicin induction): improved survival
